How the values were obtained:
Type in all cases: cell-based
[1] = system: HCT116 (colon) carcinoma cell line; assay: MTT antiproliferation assay, HCT116; settings: for IC50: Homo sapiens, HCT-116, MTT, 72 h incubation, HCT116 (colon), read-out: IC50, μM ± SD, HCT116; for SI (safety/selectivity index), HCT116: in brackets after IC50, normal RPE1 relative to HCT116
Description: (§1) Antiproliferation properties against normal RPE1 (human immortalized retinal pigment epithelial) cell line were also considered for safety/selectivity index (SI) determination of each respective agent synthesized (Table 1, Supplementary Figs. S61–S64). […]
(§2) All the biological studies conducted obey the standards and approved by the Research Ethics Committee, National Research Centre, Egypt (associated with project ID:
(§3) Antiproliferation properties
(§4) The synthesized compounds 12a‒j were screened for their antiproliferation properties against HCT116 (colon), MCF7 (breast) and PaCa2 (pancreatic) cancer cell lines by the standard mitochondrial dependent reduction of yellow MTT [3 -(4,5-dimethylthiazol-2- […]
(§5) considered as standard reference/drug. Cells were suspended in DMEM medium for MCF7, PaCa-2 and McCoy’s 5A for HCT116 in addition to 1% antibiotic–antimycotic mixture (10000 μg ml-1 potassium penicillin, 10000 μg ml-1 streptomycin sulfate and 25 μg ml-1 amphotericin B), 10% fetal bovine serum and 1% L-glutamine at 37 °C, under 5% CO2 and 95% humidity. Cells were seeded at concentration of 30000 cells per well in fresh complete growth medium in 96-well tissue culture microtiter plates for 24 h. Media […]
(§6) was aspirated, fresh complete medium was added and cells were incubated with different concentrations of the tested compound to give a final concentration of [50, 25, 12.5 and 6.25 μM “in addition to 3.125, 1.56 and 0.78 μM in case of high potent a nalogs”). 0.5% DMSO was used as a negative control. Triplicate wells were prepared for each individual dose. After 72 h of incubation, medium was aspirated, 40 μl MTT salt (2.5 mg ml -1) was added to each well and incubated for further 4 h at 37 °C. To stop the reaction and dissolve the formed crystals, 150 μl of 10% sodium dodecyl sulfate (SDS) in deionized water was added to each well and incubated overnight at 37 °C. The absorbance was then measured at 570 nm and a reference wavelength of 595 nm.
(§7) Data were collected as mean values for experiments performed in triplicates for each individual dose which had been measured by MTT assay. Control experiments did […]
(§8) The cell surviving fraction was calculated according to the following equation.
(§9) Surviving fraction = Opticaldensity(O.D.)oftreatedcells
(§10) The agents synthesized were also tested against RPE1 (normal human immortalized retinal pigment epithelial cell line) cell (in DMEM -F12 medium) to determine the toxicity/selectivity towards normal cells relative to the cancer cell lines […]
(§11) The IC50 (concentration required to produce 50% inhibition of cell growth compared to the control experiment) was determined using Graph-Pad PRISM version-5 software. Statistical calculations for determination of the mean and standard division (SD) values were determined by SPSS 16 so ftware. The observed anti-proliferative properties are presented in Table 1 ( Supplementary Figs. S61‒S64). […]

[2] = system: MCF7 (breast) carcinoma cell line; assay: MTT antiproliferation assay, MCF7; settings: for IC50: Homo sapiens, MTT, 72 h incubation, MCF7 (breast), read-out: IC50, μM ± SD, MCF7; for SI (safety/selectivity index), MCF7: in brackets after IC50, normal RPE1 relative to MCF7
Description: as §1, §2, §3, §4, §5, §6, §7, §8, §9, §10, §11

[3] = system: PaCa2 (pancreatic) carcinoma cell line; assay: MTT antiproliferation assay, PaCa2; settings: for IC50: PaCa-2, MTT, 72 h incubation, PaCa2 (pancreatic), read-out: IC50, μM ± SD, PaCa2; for SI (safety/selectivity index), PaCa2: in brackets after IC50, normal RPE1 relative to PaCa2
Description: as §1, §2, §3, §4, §5, §6, §7, §8, §9, §10, §11

[4] = system: RPE1 (human immortalized retinal pigment epithelial) cell line; assay: MTT assay on normal cells for safety/selectivity; settings: RPE-1, read-out: IC50, μM ± SD, RPE1
Protocol: as §1, §6, §7, §8, §9, §10, §11

VEGFR-2 = target: T1, VEGFR-2 (Homo sapiens, UniProt P35968); assay: VEGFR-2 inhibitory properties by western blotting; settings: for Relative quantification (RQ): VEGFR-2 western blot band, normalised to beta actin, at 10 μM, control RQ 3.290; for inhibition at 10 µM: western blotting, read-out: % Inhibition against VEGFR-2
T1 construct: lysed cells; endogenous in cells
T1 sequence (P35968 20-1356): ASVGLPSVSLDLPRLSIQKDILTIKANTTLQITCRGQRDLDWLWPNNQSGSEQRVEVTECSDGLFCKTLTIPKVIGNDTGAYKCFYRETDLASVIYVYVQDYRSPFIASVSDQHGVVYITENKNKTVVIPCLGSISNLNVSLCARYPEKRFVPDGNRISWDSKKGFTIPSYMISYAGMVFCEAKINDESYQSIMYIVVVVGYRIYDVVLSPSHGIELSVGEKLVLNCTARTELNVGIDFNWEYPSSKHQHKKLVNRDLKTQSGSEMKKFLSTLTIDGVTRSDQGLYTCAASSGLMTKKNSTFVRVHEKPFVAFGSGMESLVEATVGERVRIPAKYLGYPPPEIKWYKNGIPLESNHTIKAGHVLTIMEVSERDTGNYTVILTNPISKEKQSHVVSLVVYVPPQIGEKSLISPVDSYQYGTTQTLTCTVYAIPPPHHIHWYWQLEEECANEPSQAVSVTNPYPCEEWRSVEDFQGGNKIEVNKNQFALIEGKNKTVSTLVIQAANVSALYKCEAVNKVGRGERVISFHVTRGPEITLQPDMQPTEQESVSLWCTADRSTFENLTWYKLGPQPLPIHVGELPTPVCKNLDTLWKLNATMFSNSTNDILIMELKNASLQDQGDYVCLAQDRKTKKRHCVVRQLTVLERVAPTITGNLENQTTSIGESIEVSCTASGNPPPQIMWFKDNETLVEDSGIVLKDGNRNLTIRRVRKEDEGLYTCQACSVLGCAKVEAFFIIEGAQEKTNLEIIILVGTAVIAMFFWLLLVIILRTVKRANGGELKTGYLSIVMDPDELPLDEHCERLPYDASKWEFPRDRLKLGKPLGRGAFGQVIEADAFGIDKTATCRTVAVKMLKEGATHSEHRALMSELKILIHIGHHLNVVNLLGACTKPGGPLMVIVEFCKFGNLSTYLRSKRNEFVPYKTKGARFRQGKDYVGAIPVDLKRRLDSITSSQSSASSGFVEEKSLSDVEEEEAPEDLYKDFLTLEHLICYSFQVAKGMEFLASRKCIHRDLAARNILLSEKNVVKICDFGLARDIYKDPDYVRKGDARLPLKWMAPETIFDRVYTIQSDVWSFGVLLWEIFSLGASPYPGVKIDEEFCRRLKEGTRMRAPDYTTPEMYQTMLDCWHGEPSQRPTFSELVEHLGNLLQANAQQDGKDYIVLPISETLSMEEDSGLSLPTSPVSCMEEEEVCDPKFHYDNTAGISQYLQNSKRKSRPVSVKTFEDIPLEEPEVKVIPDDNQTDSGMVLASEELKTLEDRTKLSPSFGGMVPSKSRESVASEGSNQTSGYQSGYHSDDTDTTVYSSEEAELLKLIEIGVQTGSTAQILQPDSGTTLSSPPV
Protocol: VEGFR-2 inhibitory properties […]
standard/drug) was determined at 10 μM by the western blotting technique obeying the manufacturer’s instruction (Santa Cruz Biotechnology, Inc .).5
Protein extraction procedure
The ReadyPrepTM protein extraction kit (total protein) provided by Bio-Rad Inc.
(Catalog #163-2086) employed by the manufacturer, was added to each sample of the lysed cells. Bradford Protein Assay Kit (SK3041) for quantitative protein analysis was provided by Bio-basic Inc. (Markham Ontario L3R 8T4 Canada). A Bradford assay was performed according to manufacturer’s instructions to determine protein concentration in each sample. 20 μg protein concentration of each sample was then loaded with an equal volume of 2x Laemmli sample buffer containing 4% SDS, 10% 2-mercaptoehtanol, 20% glycerol, 0.004% bromophenol blue and 0.125 M Tris HCl. The pH was checked and brought to 6.8. Each previous mixture was boiled at 95°C for 5 min to ensure denaturation of protein before loading on polyacrylamide gel electrophoresis.
Protein separation by electrophoresis
Samples were separated on a polyacrylamide gel; the procedure was abbreviated as SDS-PAGE form Sodium Dodecyl Sulfate PolyAcrylamide Gel Electrophoresis, which is a standard technique for separating proteins according to their molecular weight.
Polyacrylamide gels were performed using TGX Stain-Free™ FastCast™ Acrylamide Kit (SDS-PAGE), which was provided by Bio-Rad Laboratories inc Cat # 161-0181. The SDS-PAGE TGX Stain-Free FastCast was prepared according to manufacturer’s […]
Protein blotting (transfer of proteins from the gel to the membrane)
The gel was assembled in transfer sandwich from below to above (filter paper, PVDF membrane, gel and filter paper). The sandwich was placed in the transfer tank with 1x transfer buffer, which is composed of 25 mM Tris and 190 mM glycine and 20% methanol. Then, the blot was run for 7 min . at 25 V to allow protein bands transfer from gel to membrane using BioRad Trans-Blot Turbo.
The membrane was blocked in tris -buffered saline with Tween 20 (TBST) buffer and 3% bovine serum albumin (BSA) at room temperature for 1 hr. The components of blocking […]
buffer were as follow; 20 mM Tris pH 7.5, 150 mM NaCl, 0.1% Tween 20 and 3% bovine serum albumin (BSA).
Incubation with the primary antibody
Primary antibody of VEGFR2 was purchased. Primary antibody was diluted in TBST according to manufactured instructions.

| SMILES | IC50 [1] [µM] | IC50 [2] [µM] | IC50 [3] [µM] | Relative quantification (RQ) (VEGFR-2) | inhibition at 10 µM (VEGFR-2) [%] | SI (safety/selectivity index), HCT116 [1] | SI (safety/selectivity index), MCF7 [2] | SI (safety/selectivity index), PaCa2 [3] | IC50 [4] [µM] | fold more potent than sunitinib ([3]; PaCa2, ratio of IC50 values) |
| --- | --- | --- | --- | --- | --- | --- | --- | --- | --- | --- |
| O=C(Nc1ccccc1)Nc1cccc(C(=O)/C=C2/C(=O)Nc3ccccc32)c1 [Compound 12a, (E)-1-{3-[2-(2-Oxoindolin-3-ylidene)acetyl]phenyl}-3-phenylurea] | 13.3 ± 1.35 | 3.13 ± 0.395 | 5.24 ± 0.502 | 0.746 | 77.3 | 1.022 | 4.355 | 2.606 | 13.6 ± 0.659 | – |
| O=C(Nc1ccccc1)Nc1ccc(C(=O)/C=C2/C(=O)Nc3ccccc32)cc1 [Compound 12b, (E)-1-{4-[2-(2-Oxoindolin-3-ylidene)acetyl]phenyl}-3-phenylurea] | 6.54 ± 0.452 | 2.08 ± 0.126 | 4.09 ± 0.172 | 0.422 | 87.2 | 1.277 | 4.014 | 2.043 | 8.36 ± 0.374 | – |
| O=C(Nc1ccccc1)Nc1cccc(C(=O)/C=C2/C(=O)Nc3ccc(F)cc32)c1 [Compound 12c, (E)-1-{3-[2-(5-Fluoro-2-oxoindolin-3-ylidene)acetyl]phenyl}-3-phenylurea] | 14.4 ± 1.47 | 5.81 ± 0.629 | 6.8 ± 0.514 | 0.472 | 85.6 | 1.483 | 3.669 | 3.133 | 21.31 ± 0.026 | – |
| O=C(Nc1ccccc1)Nc1ccc(C(=O)/C=C2/C(=O)Nc3ccc(F)cc32)cc1 [Compound 12d, (E)-1-{4-[2-(5-Fluoro-2-oxoindolin-3-ylidene)acetyl]phenyl}-3-phenylurea] | 5.78 ± 0.593 | 2.9 ± 0.3 | 4.96 ± 0.201 | 0.491 | 85.1 | 1.898 | 3.779 | 2.214 | 11 ± 0.429 | – |
| O=C(Nc1ccccc1)Nc1cccc(C(=O)/C=C2/C(=O)Nc3ccc(Cl)cc32)c1 [Compound 12e, (E)-1-{3-[2-(5-Chloro-2-oxoindolin-3-ylidene)acetyl]phenyl}-3-phenylurea] | 11.9 ± 2.53 | 3.91 ± 0.78 | 7 ± 1.11 | 0.538 | 83.6 | 1.229 | 3.738 | 2.087 | 14.6 ± 0.316 | – |
| O=C(Nc1ccccc1)Nc1ccc(C(=O)/C=C2/C(=O)Nc3ccc(Cl)cc32)cc1 [Compound 12f, (E)-1-{4-[2-(5-Chloro-2-oxoindolin-3-ylidene)acetyl]phenyl}-3-phenylurea] | 6.58 ± 0.923 | 3.41 ± 0.761 | 5.81 ± 0.63 | 0.517 | 84.3 | 1.630 | 3.144 | 1.845 | 10.7 ± 0.766 | – |
| O=C(Nc1ccccc1)Nc1ccc(C(=O)/C=C2/C(=O)Nc3ccc(Br)cc32)cc1 [Compound 12g, (E)-1-{4-[2-(5-Bromo-2-oxoindolin-3-ylidene)acetyl]phenyl}-3-phenylurea] | 6.29 ± 0.912 | 4.41 ± 0.544 | 5.32 ± 0.228 | 0.500 | 84.8 | 2.173 | 3.101 | 2.572 | 13.7 ± 0.85 | – |

More lines, main results first:

| IC50 [1] [µM] | IC50 [2] [µM] | IC50 [3] [µM] | Relative quantification (RQ) (VEGFR-2) | inhibition at 10 µM (VEGFR-2) [%] | SMILES | SI (safety/selectivity index), HCT116 [1] | SI (safety/selectivity index), MCF7 [2] | SI (safety/selectivity index), PaCa2 [3] | IC50 [4] [µM] | fold more potent than sunitinib ([3]; PaCa2, ratio of IC50 values) |
| --- | --- | --- | --- | --- | --- | --- | --- | --- | --- | --- |
| 5.58 ± 0.636 | 2.07 ± 0.081 | 4 ± 0.369 | 0.475 | 85.6 | Cc1ccc2c(c1)/C(=C\C(=O)c1ccc(NC(=O)Nc3ccccc3)cc1)C(=O)N2 [Compound 12h, (E)-1-{4-[2-(5-Methyl-2-oxoindolin-3-ylidene)acetyl]phenyl}-3-phenylurea] | 1.523 | 4.107 | 2.128 | 8.5 ± 0.466 | about 3.34 fold |
| 27.2 ± 2.95 | 8.96 ± 0.767 | 7.64 ± 0.08 | 0.634 | 80.7 | COc1ccc2c(c1)/C(=C\C(=O)c1cccc(NC(=O)Nc3ccccc3)c1)C(=O)N2 [Compound 12i, (E)-1-{3-[2-(5-Methoxy-2-oxoindolin-3-ylidene)acetyl]phenyl}-3-phenylurea] | 1.111 | 3.370 | 3.952 | 30.2 ± 0.948 | – |
| 6.15 ± 0.539 | 1.69 ± 0.067 | 4.49 ± 0.785 | 0.678 | 79.4 | COc1ccc2c(c1)/C(=C\C(=O)c1ccc(NC(=O)Nc3ccccc3)cc1)C(=O)N2 [Compound 12j, (E)-1-{4-[2-(5-Methoxy-2-oxoindolin-3-ylidene)acetyl]phenyl}-3-phenylurea] | 1.400 | 5.090 | 1.917 | 8.6 ± 0.334 | – |
| 9.57 ± 0.949 | 11.8 ± 0.937 | 13.34 ± 0.091 | – | – | CCN(CC)CCNC(=O)c1c(C)[nH]c(/C=C2\C(=O)Nc3ccc(F)cc32)c1C [Sunitinib, reference compound] | – | – | – | – | – |

Reference: paper PMC11699130, “Design and synthesis of antiproliferative 2-oxoindolin-3-ylidenes incorporating urea function with potential VEGFR-2 inhibitory properties” (Scientific Reports, 2025)
